Like-named read-outs stand apart in the source and are kept apart here.
Legend:
[1] = system: Pennsylvania smartweed (PS); experiment: PRE greenhouse, 2,4-DC + sulfentrazone (Tables 3-3B), % control; type: in vivo, Polygonum pennsylvanicum; conditions: 28 DAT, g ai/ha by row: r7-35 2,4-DC 31.2/62.5/125/250/375 (3 rows each) + sulfentrazone 105/210/315 (cycling), r37-41 2,4-DC 31.2/62.5/125/250/375, r42-44 sulfentrazone 105/210/315
Experimental: (§1) Test compositions containing 2,4-DC Example 1B and sulfentrazone (Spartan® 4F, 39.6% active ingredient, FMC Corp.) and mixtures of 2-(2,4-dichlorophenyl)methyl-4,4-dimethyl-3-isoxazolidinone and sulfentrazone, were diluted with water to provide the appropriate test rate concentration.
(§2) The test weeds were Pennsylvania smartweed (PS) (Polygonum pennsylvanicum), Palmer amaranth (PA) (Amaranthus palmeri), velvetleaf (VL) (Abutilon theophrasti), green foxtail (GF) (Setaria viridis), morningglory (MG) (Ipomoea spp.), yellow nutsedge (YN) (Cyperus esculentus), purple nutsedge (PN) (Cyperus rotundus), and benghal dayflower (BD) (Commelina benghalensis). Crops included in the evaluation were corn, wheat, and cowpea. […]
(§3) The application rates are those shown in Table 3, 3A, an d 3B below for the individual herbicidal solutions and the herbicide compositions of the present invention. […] The control of weeds was evaluated in each experimental test at 28 days after treatment (DAT), 14 DAT for crops. […] Percent weed control was determined by a method similar to the 0 to 100 rating system disclosed in “Research Methods in Weed Science,” 2nd ed., B. Truelove, Ed.; Southern Weed Science Society; Auburn University, Auburn, Ala., 1977.

Palmer amaranth (PA) = experiment: PRE greenhouse, 2,4-DC + sulfentrazone, % control; type: in vivo, Amaranthus palmeri; conditions: 28 DAT, g ai/ha by row: r7-35 2,4-DC 31.2/62.5/125/250/375 (3 rows each) + sulfentrazone 105/210/315 (cycling), r37-41 2,4-DC 31.2/62.5/125/250/375, r42-44 sulfentrazone 105/210/315
Experimental: as §1, §2, §3

velvetleaf (VL) = experiment: PRE greenhouse, 2,4-DC + sulfentrazone, % control; type: in vivo, Abutilon theophrasti; conditions: 28 DAT, g ai/ha by row: r7-35 2,4-DC 31.2/62.5/125/250/375 (3 rows each) + sulfentrazone 105/210/315 (cycling), r37-41 2,4-DC 31.2/62.5/125/250/375, r42-44 sulfentrazone 105/210/315
Experimental: as §1, §2, §3

green foxtail (GF) = experiment: PRE greenhouse, 2,4-DC + sulfentrazone, % control; type: in vivo, Setaria viridis; conditions: 28 DAT, g ai/ha by row: r7-35 2,4-DC 31.2/62.5/125/250/375 (3 rows each) + sulfentrazone 105/210/315 (cycling)
Experimental: as §1, §2, §3

morningglory (MG) = experiment: PRE greenhouse, 2,4-DC + sulfentrazone, % control; type: in vivo, Ipomoea spp.; conditions: 28 DAT, g ai/ha by row: r7-35 2,4-DC 31.2/62.5/125/250/375 (3 rows each) + sulfentrazone 105/210/315 (cycling), r37-41 2,4-DC 31.2/62.5/125/250/375, r42-44 sulfentrazone 105/210/315
Experimental: as §1, §2, §3

yellow nutsedge (YN) = experiment: PRE greenhouse, 2,4-DC + sulfentrazone, % control; type: in vivo, Cyperus esculentus; conditions: 28 DAT, g ai/ha by row: r8-16 2,4-DC 50/100/200 (3 rows each) + sulfentrazone 105/210/315 (cycling)
Experimental: as §1
(§4) The test weeds were Pennsylvania smartweed (PS) (Polygonum pennsylvanicum), Palmer amaranth (PA) (Amaranthus palmeri), velvetleaf (VL) (Abutilon theophrasti), green foxtail (GF) (Setaria viridis), morningglory (MG) (Ipomoea spp.), yellow nutsedge (YN) (Cyperus esculentus), purple nutsedge (PN) (Cyperus rotundus), and benghal dayflower (BD) (Commelina benghalensis). Crops included in the evaluation were corn, wheat, and cowpea.
(§5) For pre-emergence testing, four disposable fiber flats (6″ by 10″) for each rate of application of each herbicide solution were filled with top soil, to which seeds of each species were planted in furrows made by a template pressed on the top of the soil. The furrows with crop/weed seeds were covered with soil and were watered well before application of the test compounds. Flats designated for treatment were placed in a spray chamber having a static platform and a movable sprayer and height of the spray nozzle was 10.5 inches above the soil level. Once the sprayer was calibrated using water for spray volume of 30 gallons per acre, flats were sprayed with sprayer at a speed to receive a coverage equivalent of 30 gallons per acre.
The application rates are those shown in Table 3, 3A, an d 3B below for the individual herbicidal solutions and the herbicide compositions of the present invention. The pre-emergence flats were immediately placed in the greenhouse and watered lightly after treatment for herbicide activation. Thereafter they were regularly watered and feterilized for the duration of the test. The control of weeds was evaluated in each experimental test at 28 days after treatment (DAT), 14 DAT for crops. The results, shown as an average of the replications, were compared with results observed in untreated control flats in the same tests. Percent weed control was determined by a method similar to the 0 to 100 rating system disclosed in “Research Methods in Weed Science,” 2nd ed., B. Truelove, Ed.; Southern Weed Science Society; Auburn University, Auburn, Ala., 1977.

purple nutsedge (PN) = experiment: PRE greenhouse, 2,4-DC + sulfentrazone, % control; type: in vivo, Cyperus rotundus; conditions: 28 DAT, g ai/ha by row: r8-16 2,4-DC 50/100/200 (3 rows each) + sulfentrazone 105/210/315 (cycling)
Experimental: as §1, §2, §3

benghal dayflower (BD) = experiment: PRE greenhouse, 2,4-DC + sulfentrazone, % control; type: in vivo, Commelina benghalensis; conditions: 28 DAT, g ai/ha by row: r8-16 2,4-DC 50/100/200 (3 rows each) + sulfentrazone 105/210/315 (cycling)
Experimental: as §1, §4, §5
The application rates are those shown in Table 3, 3A, an d 3B below for the individual herbicidal solutions and the herbicide compositions of the present invention. The pre-emergence flats were immediately placed in the greenhouse and watered lightly after treatment for herbicide activation. […] The control of weeds was evaluated in each experimental test at 28 days after treatment (DAT), 14 DAT for crops. […] Percent weed control was determined by a method similar to the 0 to 100 rating system disclosed in “Research Methods in Weed Science,” 2nd ed., B. Truelove, Ed.; Southern Weed Science Society; Auburn University, Auburn, Ala., 1977.

Corn = conditions: 21 DAT, PRE
Text: (Ipomoea spp.); Italian ryegrass (Lolium perenne L. ssp. multiflorum, LOLMU). Crops tested included corn, wheat, cotton, cowpea, and bush bean.
Palmer amaranth, common ragweed, Pennsylvania smartweed, velvetleaf, wild oat, green foxtail, morningglory, and Italian ryegrass were screened. […] Thereafter flats were watered and fertilized routinely.

weeds = experiment: Ex10 PRE greenhouse; type: in vivo; conditions: 28 DAT, weed and rate in the words
Text: Treatments 1-12 of 2,4-DC and aclonifen tank-mix combinations follow same rates listed above. […] Sulfentrazone (Spartan 4F® 39.6%) at 280 g ai/ha, pendimethalin (Prowl 3.3®EC, 37.4%) at 784 g ai/ha, or S-metolachlor (Dual II Magnum® 82.4%) at 1084 g ai/ha were applied as commercial standards. Treatments were replicated 3 times and flats were watered after planting but before the treatment and lightly watered after treatment application. Thereafter flats were watered and fertilized routinely. […] Shepherd's-purse was rated at 21 and 28 DAT only, due to delayed emergence.

weeds; Sugarcane (CTC20) = experiment: Ex23 PRE greenhouse; conditions: 28 DAT, weed and rate in the words
Experimental: (Ipomoea spp). The tested crop in this study was Sugarcane (CTC20).
Sugarcane was direct seeded into 6″ plastic pots using 3-4″ sugarcane setts, oriented bud up, with bud leaf shield removed. 2,4 DC and sulfentrazone were applied alone or combined as tank-mix at each rate mentioned below. […] Treatments were replicated 3 times. […] Thereafter flats were watered and fertilized routinely. […] Visual percent sugarcane injury was recorded at 21 and 28 DAT, using a scale of 0 (no injury, observed as bleaching, stunting or necrosis) to 100 (complete plant death).

sedges = experiment: Ex26 PRE greenhouse; type: in vivo; conditions: 28 DAT, weed and rate in the words
Text: Treatments were applied at the time of planting to yellow nutsedge, purple nutsedge, and benghal dayflower. […] Flats were watered and fertilized routinely after treatment application.

[2] = system: weeds; corn, wheat, cotton, cowpea, and bush bean; experiment: Ex42 PRE greenhouse; type: in vivo; conditions: crop and rate in the words
Text: Thereafter flats were watered and fertilized routinely.

[3] = r17-19 2,4-DC 50/100/200, r20-22 sulfentrazone 105/210/315, 105 g ai/ha
[4] = r17-19 2,4-DC 50/100/200, r20-22 sulfentrazone 105/210/315, 210 g ai/ha
[5] = r17-19 2,4-DC 50/100/200, r20-22 sulfentrazone 105/210/315, 315 g ai/ha

Cc1nn(-c2cc(NS(C)(=O)=O)c(Cl)cc2Cl)c(=O)n1C(F)F [sulfentrazone]
% Control PS [1]: 100%
% Control PA (Palmer amaranth (PA)): 100%
% Control VL (velvetleaf (VL)): 100%
% Control GF (green foxtail (GF); r37-41 2,4-DC 31.2/62.5/125/250/375, r42-44 sulfentrazone 105/210/315, 105 g ai/ha): 84%
% Control GF (green foxtail (GF); r37-41 2,4-DC 31.2/62.5/125/250/375, r42-44 sulfentrazone 105/210/315, 210 g ai/ha): 100%
% Control MG (morningglory (MG)): 100%
% Control YN (yellow nutsedge (YN); [3]): 85%
% Control YN (yellow nutsedge (YN); [4]): 95%
% Control YN (yellow nutsedge (YN); [5]): 100%
% Control PN (purple nutsedge (PN); [3]): 77%
% Control PN (purple nutsedge (PN); [5]): 83%
% Control BD (benghal dayflower (BD); [3]): 72%
% Control BD (benghal dayflower (BD); [4]): 88%
% Control BD (benghal dayflower (BD); [5]): 90%
crop injury, Sulfentrazone alone (Corn; sulfentrazone 105 g ai/ha): 3%
crop injury, Sulfentrazone alone (Corn; sulfentrazone 210 g ai/ha): 10%
crop injury, Sulfentrazone alone (Corn; sulfentrazone 315 g ai/ha): 38%
weed control in words (weeds): at 280 g provided control of all weeds except quackgrass, annual bluegrass, and blackgrass
weed control in words (weeds; Sugarcane (CTC20)): alone controlled hairy beggarticks at 315 g; all other weeds were controlled with all rates
weed control in words (sedges): alone controlled yellow nutsedge at all rates, benghal dayflower at 210 or 315 g and did not control purple nutsedge at any rate
crop safety in words [2]: alone was safe on corn and bush bean only at 105 g, wheat and cowpea at 105 or 210 g 14 DAT

Source: US12616203B2, “Use of 3-isoxazolidinones compounds as selective herbicides” (FMC Corporation, priority 2014, dated 2026)
